These results are taken from paper PMC8214093, “Structural basis of KdpD histidine kinase binding to the second messenger c-di-AMP” (The Journal of Biological Chemistry, 2021).

Assay [1] deals with USPSa-S244A. The assay is described as follows: MicroScale Thermophoresis (initial fluorescence change) nucleotide binding. As to conditions: S244A mutant; for Dissociation Constant (KD) ± Standard Deviation: MST, initial fluorescence. Also noted: species or system Staphylococcus aureus. The protocol: (§1) The ligand-binding specificity of USPSa, the role of USPSa residues in c-di-AMP binding, and the c-di-AMP binding affinity of USP homologs were biochemically determined by MST, using purified WT and mutant proteins. […] For these MST experiments, WT and active-site mutants of His6-USPSa were first fluorescently labeled using a RED-Tris NTA Monolith His-Tag labeling kit (Nanotemper, Technologies, Inc). For labeling, the proteins were diluted to a concentration of 800 nM in binding buffer (50 mM potassium phosphate, pH 8.0, 800 mM NaCl, and 0.05% Tween 20), mixed with an equal volume of RED-Tris-NTA dye (80 nM), and incubated on ice in the dark for 30 min. The stock solutions of ligands (c-di-AMP, c-di-GMP, ATP, AMP, c-AMP) were serially diluted with the binding buffer in a 1:1 ratio during each dilution step. The labeled proteins and the ligand dilutions were then mixed in a 1:1 ratio and incubated on ice in the dark for 30 min.
(§2) The samples were then loaded into Monolith standard-treated capillaries in triplicate, and the changes in fluorescence were measured with 40% LED power and 20% IR-laser power for an on-time of 20-s at 23 °C. To determine the binding affinity, the ligand-dependent changes in the intensity of the initial fluorescence, or the thermophoretic mobility, were analyzed according to the law of mass action in a standard fitting mode of MO.Affinity analysis software (version 2.3). To exclude the possibility of nonspecific binding of the ligand to the His6-tag (on USPSa) or ligand-induced USP adsorption to labware or due to aggregation, we performed His6-peptide and EDTA tests, respectively ([91]). In the His6-peptide test, a control His6-peptide was used instead of USP in the binding assay described above, and if no change in initial fluorescence occurred, this confirmed the USP-specific binding of ligands. In the EDTA test, the binding buffer additionally contained 50 mM EDTA to disrupt the interaction between His6-USP and the RED-Tris-NTA dye. The complete loss of the ligand-induced initial fluorescence change in this assay confirmed that this change was neither because of protein aggregation nor because of protein adsorption to labware.
(§3) The Ka values of WT USPSa for c-di-AMP or AMP were set to 100% relative affinity, and the binding affinities of the other nucleotides (Fig. 1C), or USPSa mutants (Fig. 4E), or USP homologs (Fig. 6, B and C) were depicted as percent values compared with the values of the WT USPSa.
(MST reads how a fluorescent partner responds to local heating, with and without ligand.)

The target of assay [2] is USPSa-R279A (Staphylococcus aureus, UniProt A0A7U7EVR3, R279A). The assay is described as follows: MicroScale Thermophoresis (thermophoretic mobility change) nucleotide binding. To be noted: R279A mutant; MST, change in thermophoretic mobility; read-out: Dissociation Constant (KD) ± Standard Deviation. The protocol: as §1, §2, §3
For assay [3], the target named is T1, USPSa-K277A (Staphylococcus aureus, UniProt A0A7U7EVR3, K277A).
T1 sequence (A0A7U7EVR3 213-364 K277A): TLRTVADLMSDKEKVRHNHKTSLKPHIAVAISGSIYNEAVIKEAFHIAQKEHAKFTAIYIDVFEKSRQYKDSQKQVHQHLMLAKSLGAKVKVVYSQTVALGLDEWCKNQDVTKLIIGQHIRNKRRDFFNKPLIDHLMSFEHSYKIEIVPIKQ
Described as above. To be noted: K277A mutant; for Kd: MST, change in thermophoretic mobility, read-out: Dissociation Constant (KD) ± Standard Deviation. The procedure: as §1, §2, §3

For assay [4], the target named is USPSa-WT (Staphylococcus aureus, UniProt A0A7U7EVR3). Described as above. To be noted: MST, change in thermophoretic mobility, read-out: Dissociation Constant (KD) ± Standard Deviation. The protocol: as §1, §2, §3
Assay [5] has as its target T2, USPSa-S246A (Staphylococcus aureus, UniProt A0A7U7EVR3, S246A).
T2 sequence (A0A7U7EVR3 213-364 S246A): T1 sequence (A0A7U7EVR3 213-364 K277A)
The assay is described as follows: MicroScale Thermophoresis (initial fluorescence change) nucleotide binding. As to conditions: S246A mutant; for Kd: MST, initial fluorescence, read-out: Dissociation Constant (KD) ± Standard Deviation. The procedure:
as §1, §2, §3

For assay [6], the target named is USPSa-K282A (Staphylococcus aureus, UniProt A0A7U7EVR3, K282A). The assay is described as above. As to conditions: K282A mutant, MST, read-out: Dissociation Constant (KD) ± Standard Deviation. The protocol: as §1, §2, §3
The target in assay [7] is T3, USPSa-S244D (Staphylococcus aureus, UniProt A0A7U7EVR3, S244D).
T3 sequence (A0A7U7EVR3 213-364 S244D): T1 sequence (A0A7U7EVR3 213-364 K277A)
The assay is described as above. As to conditions: S244D mutant. The procedure:
as §1, §2, §3

The target of assay [8] is T4, USPSa-H331A (Staphylococcus aureus, UniProt A0A7U7EVR3, H331A).
T4 sequence (A0A7U7EVR3 213-364 H331A): T1 sequence (A0A7U7EVR3 213-364 K277A)
The assay is described as above. As to conditions: for Kd: H331A mutant, MST, initial fluorescence, read-out: Dissociation Constant (KD) ± Standard Deviation. The protocol: as §1, §2, §3

The target in assay [9] is T5, USPSa-A242G (Staphylococcus aureus, UniProt A0A7U7EVR3, A242G).
T5 sequence (A0A7U7EVR3 213-364 A242G): T1 sequence (A0A7U7EVR3 213-364 K277A)
The assay is described as above. To be noted: for Kd: MST, initial fluorescence, read-out: Dissociation Constant (KD) ± Standard Deviation. The procedure: as §1, §2, §3

For assay [10], the target named is USPSa-Q280A (Staphylococcus aureus, UniProt A0A7U7EVR3, Q280A). The assay is described as above. To be noted: Q280A mutant, MST, read-out: Dissociation Constant (KD) ± Standard Deviation. The procedure: as §1, §2, §3
Assay [11] addresses T6, USPSa-Y281F (Staphylococcus aureus, UniProt A0A7U7EVR3, Y281F).
T6 sequence (A0A7U7EVR3 213-364 Y281F): T1 sequence (A0A7U7EVR3 213-364 K277A)
The assay is described as above. As to conditions: Y281F mutant; for Kd: MST, initial fluorescence, read-out: Dissociation Constant (KD) ± Standard Deviation. The protocol: as §1, §2, §3

The target in assay [12] is T7, USPSa-Y248A (Staphylococcus aureus, UniProt A0A7U7EVR3, Y248A).
T7 sequence (A0A7U7EVR3 213-364 Y248A): T1 sequence (A0A7U7EVR3 213-364 K277A)
The assay is described as above. To be noted: Y248A mutant; for Kd: MST, initial fluorescence, read-out: Dissociation Constant (KD) ± Standard Deviation. The procedure: as §1, §2, §3

The target in assay [13] is T8, USPSa-L344A (Staphylococcus aureus, UniProt A0A7U7EVR3, L344A).
T8 sequence (A0A7U7EVR3 213-364 L344A): T1 sequence (A0A7U7EVR3 213-364 K277A)
The assay is described as above. As to conditions: L344A mutant; for Kd: MST, initial fluorescence, read-out: Dissociation Constant (KD) ± Standard Deviation. The procedure:
as §1, §2, §3

Assay [14] has as its target T9, USPSa-N249A (Staphylococcus aureus, UniProt A0A7U7EVR3, N249A).
T9 sequence (A0A7U7EVR3 213-364 N249A): T1 sequence (A0A7U7EVR3 213-364 K277A)
The assay is described as above. As to conditions: N249A mutant; for Kd: MST, initial fluorescence, read-out: Dissociation Constant (KD) ± Standard Deviation. The protocol:
as §1, §2, §3

Setting [15] is: Ka relative to WT USPSa set to 100%.

Each structure is given as a SMILES string. Read-outs that look alike come from different tables or passages of the source.

Usually Kd stands for a measure of binding affinity in units of concentration. With `Nc1ncnc2c1ncn2[C@@H]1O[C@H](COP(=O)(O)O)[C@@H](O)[C@H]1O` [AMP], in assay [1], the “binding in MST analysis (in words)” value is recorded as “did not bind”. In addition, the “Dissociation Constant (KD) ± Standard Deviation” value in [1] is recorded as “No Binding Observed”. For the same compound, the Kd in [2] worked out at 14400 ± 950 µM; in assay [3] it was 50700 ± 4030 µM; in assay [4], 20700 ± 4400 µM; in assay [5] it was 7250 ± 210 µM; in assay [6] it was 1450 ± 640 µM; in assay [7] (MST, initial fluorescence, read-out: Dissociation Constant (KD) ± Standard Deviation) it was 4060 ± 1940 µM. Further, the Kd came out at 4130 ± 110 µM in [8]; 140 ± 10 µM in [9] (A242G mutant); 1820 ± 250 µM in assay [10]; 5150 ± 350 µM in [11]; 5400 ± 3810 µM in assay [12]; 4140 ± 900 µM in assay [13]. Also, the Kd in assay [14] stood at 5170 ± 3420 µM. For the same compound, the relative binding affinity in assay [3] (setting [15]) is listed as approximately 45%; in assay [5] (setting [15]), approximately 40%; in assay [7] (setting [15]) it was approximately 50%. The “loss of relative binding affinity” value in [8] (His331 to Ala mutant, relative to WT USPSa) is on record as approximately 60%. For the same compound, the “improvement of binding affinity versus WT USPSa” value in [9] (A242G mutant) is approximately 25 fold. In addition, the “binding relative to WT USPSa” value in [11] (setting [15]) is given as approximately 30%. In addition, the relative affinity is given as approximately 60% in [12] (setting [15]) and 40% in [13] (setting [15]).

With `Nc1ncnc2c1ncn2[C@@H]1O[C@@H]2COP(=O)(O)O[C@H]3[C@@H](O)[C@H](n4cnc5c(N)ncnc54)O[C@@H]3COP(=O)(O)O[C@H]2[C@H]1O` [c-di-AMP, cyclic-di-adenosine monophosphate], the “binding in MST analysis (in words)” value in [1] is reported as “complete loss”. Also, the “Dissociation Constant (KD) ± Standard Deviation” value in assay [1] is recorded as “No Binding Observed”; in [7] (MST, initial fluorescence), “No Binding Observed”. Also, the equilibrium dissociation constant (Kd) came to 8.67 ± 0.75 µM in [2]; 10.1 ± 0.24 µM in [3]; 3.13 ± 0.75 µM in assay [4]; 1.3 ± 0.19 µM in assay [5]; 0.6 ± 0.24 µM in assay [6]; 2.37 ± 1.32 µM in assay [8]. Also, the Kd in assay [9] (A242G mutant) was 0.01 ± 0.01 µM; in assay [10] it was 0.87 ± 0.06 µM; in [11], 1.79 ± 0.84 µM; in [12], 4.22 ± 0.11 µM; in [13], 8.84 ± 1.09 µM; in assay [14], 7.84 ± 0.34 µM. The “binding (in words)” value in assay [7] is recorded as “completely abolished”. The “improvement of binding affinity versus WT USPSa” value in assay [9] was approximately 50 fold. The “binding affinity versus WT USPSa (in words)” value in assay [14] is on record as “significant reduction”.
